# The source made the active and inactive calls. No cut-off for these calls is given here.
# Tests used:
# A2780 [1] = experiment: Cytotoxicity against human A2780 cells up to 10 uM after 48 hrs by MTT assay; assay type: functional, cell-based
# HEY [2] = experiment: Cytotoxicity against human HEY cells up to 10 uM after 48 hrs by MTT assay; assay type: functional, cell-based
# HEY [3] = experiment: Cytotoxicity against human HEY cells after 48 hrs by MTT assay; assay type: functional, cell-based
# A2780 [4] = experiment: Induction of autophagy in human A2780 cells assessed as increase in LC3-2 expression up to 10 uM after 24 hrs by Western blot analysis; assay type: functional, cell-based
# HEY [5] = experiment: Induction of autophagy in human HEY cells assessed as increase in LC3-2 expression up to 10 uM after 24 hrs by Western blot analysis; assay type: functional, cell-based
# A2780 [6] = experiment: Induction of autophagy in human A2780 cells expressing mRFP-GFP-LC3 plasmid assessed as increase in LC3 punctum formation at 10 uM after 24 hrs by confocal microscopic analysis; assay type: functional, cell-based
# [7] = molecular target: T1, c-Jun N-terminal kinase, JNK (Homo sapiens) (UniProt P45983+P53779+P45984); experiment: Activation of JNK phosphorylation in human A2780 cells up to 10 uM after 24 hrs by Western blot analysis; assay type: cell-based
# [8] = molecular target: T1, c-Jun N-terminal kinase, JNK (Homo sapiens); experiment: Activation of JNK in human A2780 cells assessed as increase in c-jun expression up to 10 uM after 24 hrs by Western blot analysis; assay type: cell-based
# [9] = molecular target: T1, c-Jun N-terminal kinase, JNK (Homo sapiens); experiment: Activation of JNK in human A2780 cells assessed as increase in phosphorylated c-jun expression up to 10 uM after 24 hrs in presence of JNK/c-Jun pathway inhibitor SP600125 by Western blot analysis; assay type: cell-based
# [10] = molecular target: T1, c-Jun N-terminal kinase, JNK (Homo sapiens); experiment: Activation of JNK in human A2780 cells assessed as increase in phosphorylated c-jun expression up to 10 uM after 24 hrs by Western blot analysis; assay type: cell-based
# [11] = molecular target: T1, c-Jun N-terminal kinase, JNK (Homo sapiens); experiment: Activation of JNK phosphorylation in human A2780 cells up to 10 uM after 24 hrs in presence of JNK/c-Jun pathway inhibitor SP600125 by Western blot analysis; assay type: cell-based
# A2780 [12] = experiment: Induction of autophagy in human A2780 cells assessed as increase in LC3-2 expression in presence of JNK/c-Jun pathway inhibitor SP600125 by Western blot analysis; assay type: functional, cell-based
# A2780 [13] = experiment: Induction of autophagy in human A2780 cells assessed as increase in LC3-2 expression by Western blot analysis; assay type: functional, cell-based
# HEY [14] = experiment: Induction of autophagy in human HEY cells assessed as increase in LC3-2 expression by Western blot analysis; assay type: functional, cell-based
# A2780 [15] = experiment: cells; settings: Homo sapiens, A2780, 48 h
# Description: (§1) Cytotoxicity against human A2780 cells after 48 hrs by MTT assay
# A2780 [16] = settings: Homo sapiens
# Description: as §1
Structure (SMILES),Activity (A2780 [1]),Activity (HEY [2]),Activity (HEY [3]),Activity (A2780 [16]),further results
CCc1oc(=O)cc2c1[C@@H](O)[C@H]1OC(=O)[C@@]3(C)[C@@H](O)[C@H]4O[C@H]4[C@@]2(C)[C@@H]13,inactive,inactive,–,–,–
CC(O)c1oc(=O)cc2c1C[C@H]1OC(=O)[C@@]3(C)[C@H](O)[C@H]4O[C@H]4[C@@]2(C)[C@@H]13 (some centres not stated),inactive,inactive,–,–,–
CCc1oc(=O)cc2c1C[C@H]1OC(=O)[C@@]3(C)[C@@H](O)[C@@H](O)[C@H](O)[C@@]2(C)[C@@H]13,inactive,inactive,–,–,–
CCc1oc(=O)cc2c1C[C@H]1OC(=O)[C@@]3(C)C[C@@H](O)[C@@H](O)[C@@]2(C)[C@@H]13,–,–,–,–,IC50 (HEY [3]): < 2500 nM; Activity (A2780 [4]): Active; Activity (HEY [5]): Active; Activity (A2780 [6]): Active; Activity [7]: Active; Activity [8]: Active; Activity [9]: inactive; Activity [10]: Active; Activity [11]: inactive; Activity (A2780 [12]): inactive; Activity (A2780 [13]): Active; Activity (HEY [14]): Active; IC50 (A2780 [15]): < 2500 nM
CC(C)c1oc(=O)cc2c1[C@@H](O)[C@H]1OC(=O)[C@@]3(C)[C@@H](O)[C@H]4O[C@H]4[C@@]2(C)[C@@H]13,–,–,Active,Active,–
CCc1oc(=O)cc2c1C[C@H]1OC(=O)[C@@]3(C)[C@H](O)[C@H]4O[C@H]4[C@@]2(C)[C@@H]13,–,–,Active,Active,Activity (A2780 [13]): Active; Activity (HEY [14]): Active
CC(C)c1oc(=O)cc2c1[C@@H](O)[C@H]1OC(=O)[C@@]3(C)CC[C@@H](O)[C@@]2(C)[C@@H]13,–,–,Active,Active,–
CC(C)c1oc(=O)cc2c1[C@@H](O)[C@H]1OC(=O)[C@@]3(C)C[C@@H](O)C[C@@]2(C)[C@@H]13,–,–,Active,Active,–
CC(O)c1oc(=O)cc2c1C[C@H]1OC(=O)[C@@]3(C)[C@@H](O)[C@@H](O)[C@H](Cl)[C@@]2(C)[C@@H]13 (some centres not stated),inactive,inactive,–,–,–
CC(C)c1oc(=O)cc2c1[C@@H](O)[C@H]1OC(=O)[C@@]3(C)C[C@@H](O)[C@@H](O)[C@@]2(C)[C@@H]13,–,–,Active,Active,–
CCc1oc(=O)cc2c1C[C@H]1OC(=O)[C@@]3(C)[C@@H](O)[C@H]4O[C@H]4[C@@]2(C)[C@@H]13,–,–,Active,Active,–
CCc1oc(=O)cc2c1C[C@H]1OC(=O)[C@@]3(C)CC[C@@H](O)[C@@]2(C)[C@@H]13,–,–,–,–,IC50 (HEY [3]): 6400 nM; IC50 (A2780 [15]): 3800 nM
CC(O)c1oc(=O)cc2c1C[C@H]1OC(=O)[C@@]3(C)CC[C@@H](O)[C@@]2(C)[C@@H]13 (some centres not stated),inactive,inactive,–,–,–
CCc1oc(=O)cc2c1C[C@H]1OC(=O)[C@@]3(C)[C@@H](O)C[C@@H](O)[C@@]2(C)[C@@H]13,inactive,inactive,–,–,–
CC(C)c1oc(=O)cc2c1[C@@H](O)[C@H]1OC(=O)[C@@]3(C)CC(=O)[C@@H](O)[C@@]2(C)[C@@H]13,inactive,inactive,–,–,–
CC(=O)O[C@H]1C(=O)[C@@]2(C)[C@H]([C@H](OC(=O)c3ccccc3)[C@]3(O)C[C@H](OC(=O)[C@H](O)[C@@H](NC(=O)c4ccccc4)c4ccccc4)C(C)=C1C3(C)C)[C@]1(OC(C)=O)CO[C@@H]1C[C@@H]2O [PACLITAXEL],–,–,–,–,IC50 (HEY [3]): 104 nM; IC50 (A2780 [15]): 164 nM
CC(C)[C@H]1OC(=O)C=C2[C@@]13O[C@@H]3[C@H]1OC(=O)[C@@]3(C)CCC[C@@]2(C)[C@@H]13,–,–,Active,Active,–
